Data set [1] deals with Chikungunya virus. The experiment in a line: Antiviral activity against CHIKV infected in African green monkey Vero cells assessed as reduction in viral replication by measuring viral titre after 72 hrs by plaque reduction assay. The class given is functional, organism-based.
In data set [2] the test system is Zika virus. Kind of data set: Antiviral activity against Zika virus infected in African green monkey Vero cells assessed as inhibition of viral replication at 20 uM measured after 4 days relative to control. The class given is functional. To be noted: 96 h, time 4 day; for inhibition at 20 µM: Zika virus, Vero; for inhibition (INH): 20 µM.
Data set [3] in a line: (§1) Cytotoxicity against African green monkey Vero cells by MTT assay. The data set is classed as cell-based. To be noted: chlorocebus sabaeus, Vero cells. For orientation: Tetrazolium dyes change colour on reduction, which living cells bring about.
Data set [4] can be described thus: Selectivity index, ratio of CC50 for African green monkey Vero cells to EC50 for CHIKV. To be noted: read-out: Ratio CC50/EC50. The data set is classed as toxicity.
For data set [5], the system named is Chikungunya virus. The experiment in a line: Antiviral activity against CHIKV infected in African green monkey Vero cells assessed as inhibition of viral replication at 20 uM measured after 4 days relative to control. The data set is classed as functional. The note with it: 96 h, time 4 day; for inhibition at 20 µM: Chikungunya virus, Vero.
Data set [6] in a line: Selectivity index, ratio of CC50 for African green monkey Vero cells to EC50 for Zika virus. The data set is classed as toxicity. To be noted: read-out: Ratio CC50/EC50.
Data set [7] deals with Zika virus. Kind of data set: Antiviral activity against Zika virus infected in African green monkey Vero cells assessed as reduction in viral replication by measuring viral titre after 72 hrs by plaque reduction assay. The class given is functional, organism-based.
Data set [8] deals with Zika virus. Kind of data set: Antiviral activity against Zika virus infected in African green monkey Vero cells assessed as inhibition of viral adsorption at 20 uM measured after 4 days by crystal violet staining based assay relative to control. The data set is classed as functional. To be noted: 96 h, time 4 day.
The subject of data set [9] is Zika virus. The experiment in a line: Virucidal activity against Zika virus infected in African green monkey Vero cells at 20 uM measured after 4 hrs relative to control. The data set is classed as functional.
In data set [10] the test system is Chikungunya virus. The experiment in a line: Antiviral activity against CHIKV infected in African green monkey Vero cells assessed as inhibition of viral adsorption at 20 uM measured after 4 days by crystal violet staining based assay relative to control. The data set is classed as functional. The note with it: 96 h, time 4 day.
Data set [11] concerns Chikungunya virus. The experiment in a line: Virucidal activity against CHIKV infected in African green monkey Vero cells at 5 to 20 uM measured after 4 hrs. The class given is functional, organism-based. The note with it: dose 5-20 µM.
The test system of a further data set is Vero. The data set is described as §1. The data set is classed as cell-based. To be noted: chlorocebus sabaeus, vero.

Active and inactive are the calls of the source. The calls are words filed in the database; no cut-off is given here.

Consider `CC(C)=C1C(=O)C[C@@]2(C)C[C@H]3O[C@]3(C)CC/C=C(\C)CC[C@H]12`, for which the EC50 (in general, the concentration giving half of the maximal effect) with Chikungunya virus [1] is 9.5 µM. The inhibition (in general, the drop in the measured response relative to a control, in per cent) at 20 µM in the data set with Zika virus [2] stood at 65%; with Chikungunya virus [5] it was 82%. In data set [3], half-maximal cytotoxicity (CC50) was put at 470 µM. The selectivity ratio in data set [4] was 50.

As for `CC(C)=C1C(=O)C[C@@]2(C)C/C=C(\C)CC/C=C(\C)CC[C@H]12` [DOLABELLANE], the inhibition at 20 µM in the data set on Zika virus [2] and with Chikungunya virus [5] was 0% in each case. Moreover, in [3], the CC50 (in general, the concentration at which the toxic effect on the cells reaches its halfway point) was determined as 150 µM.

With `CC(=O)OC/C1=C\CC/C(C)=C/C[C@]2(C)CC(=O)C(=C(C)C)[C@H]2CC1`, the inhibition at 20 µM with Zika virus [2] is 30%; in the data set with Chikungunya virus [5], 0%. For the same molecule, the half-maximal cytotoxic concentration (CC50) in [3] turned out to be 250 µM.

`CC(C)=C1[C@H](O)C[C@@]2(C)C[C@H]3O[C@]3(C)CC[C@H]3O[C@]3(C)CC[C@H]12`: the inhibition at 20 µM in the data set with Zika virus [2] was determined as 49%; with Chikungunya virus [5], 44%. The molecule also gave a 50% cytotoxic concentration (CC50) in data set [3] of 960 µM.

Turning to `COC1(C)CC[C@@H](O)[C@]2(C)CC[C@@H]3C(=C(C)C)C(=O)C[C@@]3(C)C[C@@H]12` (relative stereo; 18), the “inhibition (INH)” value in the data set with Zika virus [2] stood at 100%. Further, in [6], the selectivity ratio stood at 410. Besides, in the data set with Zika virus [7], the EC50 turned out to be 1.8 µM. Also, the inhibition at 20 µM with Zika virus [8] was over 90%; in the data set with Chikungunya virus [5], 25%. In addition, half-maximal cytotoxicity in data set [3] (CC50) was put at 730 µM.

With `CC(C)=C1C(=O)C[C@@]2(C)C/C=C(\C=O)CC[C@H]3O[C@]3(C)CC[C@H]12`, the inhibition at 20 µM in the data set with Zika virus [2] was 99%; in the data set with Chikungunya virus [5], 39%. The selectivity ratio in data set [6] is 830. Further, the EC50 in the data set with Zika virus [7] is 0.9 µM. Further, in data set [3], it took 750 µM to reach half-maximal cytotoxicity (CC50). The Activity in the data set on Zika virus [9] amounted to 90%.

`CC(C)=C1[C@H]2CC[C@@]3(C)O[C@@H]3CC/C(C)=C/C[C@]2(C)C[C@@H]1O`: the results for the inhibition at 20 µM in the data set with Zika virus [2] and in the data set on Chikungunya virus [5] were 99% and 45%, respectively. Besides, in data set [6], the selectivity ratio came out at 480. In addition, in the data set on Zika virus [7], the EC50 is 1.2 µM. In data set [3], this molecule returned a 50% cytotoxic concentration (CC50) of 580 µM. Moreover, the Activity in the data set with Zika virus [9] is 80%.

Take `C[C@H]1/C=C/[C@@]2(C)CC[C@@H](C(C)(C)O)[C@@H]2[C@@H](O)C[C@](C)(O)/C=C/C1`: the values for the inhibition at 20 µM in the data set on Zika virus [2] and in the data set on Chikungunya virus [5] were 50% and 35%, respectively. It took 400 µM to reach half-maximal cytotoxicity in data set [3] (CC50).

Turning to `CC(C)=C1[C@H]2CC/C(C)=C/CC/C(C)=C/C[C@]2(C)C[C@@H]1O`, the inhibition at 20 µM amounted to 51% in the data set with Zika virus [2] and 0% in the data set with Chikungunya virus [5]. In data set [3], this molecule yielded a 50% cytotoxic concentration (CC50) of 190 µM.

Turning to `C=C(C)C1=CC[C@@]2(C)C[C@H]3O[C@]3(C)CC[C@H]3O[C@]3(C)CC[C@H]12`, the inhibition at 20 µM came out at 60% in the data set on Zika virus [2] and 0% with Chikungunya virus [5]. In [3], this molecule had a half-maximal cytotoxic concentration (CC50) of 480 µM.

For `CC(=O)O[C@@H]1C[C@@]2(C)C/C=C(\C)CC/C=C(\C)CC[C@@H]2C1=C(C)C`, the EC50 with Chikungunya virus [1] came to 1.2 µM. The results for the inhibition at 20 µM in the data set on Zika virus [2], with Chikungunya virus [10] and in the data set on Chikungunya virus [5] were 62%, over 90% and 99%, respectively. The molecule further displayed a CC50 in data set [3] of 100 µM. The result with Chikungunya virus [11] was Active. Besides, in [4], the selectivity ratio worked out at 83.

As for `CC(C)=C1[C@H](O)C[C@@]2(C)C/C=C(\C)CC[C@H]3O[C@]3(C)CC[C@H]12`, the inhibition at 20 µM in the data set on Zika virus [2] worked out at 30%; in the data set on Chikungunya virus [5], 33%. In data set [3], this molecule had a CC50 of 430 µM.

Regarding `CC1=CC[C@@H](O)[C@]2(C)CC[C@@H]3C(=C(C)C)C(=O)C[C@@]3(C)C[C@@H]12`, the values for the inhibition at 20 µM in the data set with Zika virus [2] and in the data set with Chikungunya virus [5] were 99% and 65%, respectively. Besides, the selectivity ratio in [6] was 280. The EC50 with Zika virus [7] was 2.1 µM. In addition, the half-maximal cytotoxic concentration (CC50) in data set [3] stood at 580 µM.

As to `CC(C)=C1C(=O)C[C@@]2(C)C/C=C(\C)CC/C=C(\C=O)CC[C@H]12`, the inhibition at 20 µM in the data set with Zika virus [2] stood at 0%; in the data set on Chikungunya virus [5], 29%. Moreover, the CC50 in data set [3] is 100 µM.

Consider `COC1(C)CC[C@@H](O)[C@]2(C)CC[C@@H]3C(=C(C)C)C(=O)C[C@@]3(C)C[C@@H]12` (relative stereo; 19), for which the “inhibition (INH)” value is reported as 59% with Zika virus [2] and 40% in the data set with Chikungunya virus [5] (20 µM). For the same molecule, the CC50 in the data set with Vero was determined as 650 µM.

Regarding `CC(C)=C1C(=O)C[C@@]2(C)C[C@H]3O[C@]3(C)CC[C@H]3O[C@]3(C)CC[C@H]12`, the values for the inhibition at 20 µM in the data set on Zika virus [2] and in the data set with Chikungunya virus [5] were 56% and 0%, respectively. For the same molecule, the CC50 in [3] was found to be 960 µM.

Consider `C=C(C)C1=CC[C@@]2(C)C/C=C(\C)CC/C=C(\CO)CC[C@H]12`, for which the figures for the inhibition at 20 µM in the data set with Zika virus [2] and in the data set with Chikungunya virus [5] were 61% and 0%, respectively. In addition, the CC50 in [3] turned out to be 600 µM.

On to `CC(C)=C1C(=O)C[C@@]2(C)C/C=C(\CO)CC[C@H]3O[C@]3(C)CC[C@H]12`, for which, in the data set on Chikungunya virus [1], the EC50 is 13 µM. The results for the inhibition at 20 µM in the data set with Zika virus [2] and with Chikungunya virus [5] were 60% and 71%, respectively. In addition, in data set [3], the CC50 came out at 800 µM. In addition, in data set [4], the selectivity ratio was determined as 61.

In the case of `CC(C)=C1[C@H]2CC[C@@]3(C)O[C@@H]3CC[C@@]3(C)O[C@@H]3C[C@]2(C)C[C@@H]1O`, the EC50 was 0.7 µM with Chikungunya virus [1] and 8.9 µM with Zika virus [7]. Further, the values for the inhibition at 20 µM with Zika virus [2] and in the data set with Chikungunya virus [5] were 81% and 98%, respectively. Besides, the results for the selectivity ratio in data set [6] and in data set [4] were 110 and 1400, respectively. In [3], this molecule registered a cytotoxic concentration (CC50) of 1000 µM.

For `CC(C)=C1C(=O)C[C@@]2(C)C/C=C(\C)CC[C@H]3O[C@]3(C)CC[C@H]12`, the EC50 in the data set with Chikungunya virus [1] is 1.2 µM. Besides, the inhibition at 20 µM in the data set on Zika virus [2] is 38%; in the data set on Chikungunya virus [10], over 90%; in the data set on Chikungunya virus [5], 99%. This molecule also had a CC50 in data set [3] of 530 µM. The outcome with Chikungunya virus [11] was Active. The selectivity ratio in data set [4] was determined as 440.

As for `NC(=O)c1ncn([C@@H]2O[C@H](CO)[C@@H](O)[C@H]2O)n1` [RIBAVIRIN], the inhibition at 20 µM in the data set on Zika virus [2] was found to be 93%; with Chikungunya virus [5] it was 97%.

(Values after ChEMBL document CHEMBL4811249, “Semisynthesis of Dolabellane Diterpenes: Oxygenated Analogues with Increased Activity against Zika and Chikungunya Viruses” (J Nat Prod, 2021).)
